From US20230041197A1, “TREATMENT OF A DISEASE OF THE GASTROINTESTINAL TRACT WITH AN IMMUNOMODULATOR” (Progenity, Inc., priority 2018, published 2023)
Structures can show the parent of a compound that is named as a salt.

Experiments:
[1] = test system: IL-6, GM-CSF, IL-15, IL-2, IL-12, IL-13, TNF-α, INF-γ
[2] = Tacrolimus blood pharmacokinetics, oral vs intra-cecal ingestible device (Example 10); type: in vivo, Yorkshire-Cross farm swine
Experimental: The primary objective of this study was to compare the tissue, plasma, rectal sample, and GI content pharmacokinetics of tacrolimus through oral versus intra-cecal ingestible device delivery in normal Yorkshire-Cross farm swine.
No further randomization procedure was employed.
Animals in Group 1 received an ingestible device containing 0.8 mL of vehicle solution (80% alcohol, 20% HCO-60). Animals in Group 2 received orally […] liquid formulation of tacrolimus at 4 mg/0.8 mL per animal (Prograf: 5 mg/mL). Animals in Group 3 received intra-cecally an ingestible device containing tacrolimus at 1 mg in 0.8 mL per ingestible device. Animals in Group 4 received intra-cecally an ingestible device containing tacrolimus at 2 mg in 0.8 mL per ingestible device. Animals in Group 5 received intra-cecally an ingestible device containing tacrolimus at 4 mg in 0.8 mL per ingestible device. To control for potential confounding effects of the surgery, all groups fast on Day −11 at least 24 hr before being subjected to anesthesia followed by surgical placements of a cecal port by a veterinary surgeon at Day −10. All animals were fasted for at least 12 hr prior to dosing on Day 1. Animals were dosed via either intra-cecal dosing (IC) or oral dosing (PO) at Day 1 (between 6-8 p.m.). All animals resumed feeding at approximately 4 hours after dose (11-12 p.m. after dosing).
Approximately 200-400 mg of rectal content were collected, if available, with a fecal swab (Copan Diagnostics Nylon Flocked Dry Swabs, 502CS01). The fecal swab was pre-weighed and weighed after collection in the collection tube (Sterile Tube and Cap No Media, PFPM913S), and the sample weight was recorded. The fecal swab was broken via the breakpoint, and was stored in the collection tube, and immediately frozen at −70° C. […] Immediately following euthanasia, tissue was collected.
Group 2 animals were administered a single oral dose of tacrolimus at 4 mg/0.8 mL (0.08-mg/kg) (in the vehicle solution) on Day 1. Plasma, rectal content sample, tissue collection, GI content collection and related procedures/storage/shipments was the same as those employed in Group 1.
(§1) Group 3 animals were administered a single intra-cecal ingestible device containing tacrolimus at 1-mg/0.8 mL (0.02 mg/kg) (in the vehicle solution) on Day 1 by a veterinary surgeon. Plasma, rectal content sample, tissue collection, GI content collection and related procedures/storage/shipments was the same as those employed in Group 1. All samples were analyzed for tacrolimus.
Group 4 animals were administered a single intra-cecal ingestible device of tacrolimus at 2 mg/0.8 mL (0.04 mg/kg) (in sterile vehicle solution) on Day 1 by a veterinary surgeon.
as §1, with “Group 5” for “Group 3”, “animals are” for “animals were”, “at 4 mg/0.8” for “at 1-mg/0.8”, “mL (0.08” for “mL (0.02”, “procedures/storage/shipments were” for “procedures/storage/shipments was”

[3] = Tacrolimus in GI tissue, luminal content and rectal content, oral vs intra-cecal device (Example 10); type: in vivo, Yorkshire-Cross farm swine
Experimental: Animals in Group 1 (Vehicle Control) were administered a single intra-cecal ingestible device containing 0.8 mL Vehicle solution (80% alcohol, 20% castor oil (HCO-60) on Day 1. On Day −10 the animals were anesthetized, and a veterinary surgeon surgically placed an intra-cecal port in each animal. On Day 1, each animal was placed into a sling then a single intra-cecal ingestible device containing 0.8 mL vehicle solution (80% alcohol, 20% castor oil (HCO-60)) is introduced by the veterinary surgeon into the cecum via the cecal port in each animal. Following ingestible device placement, the animals were removed from the slings and placed back into their pens with water. […]
Approximately 200-400 mg of rectal content were collected, if available, with a fecal swab (Copan Diagnostics Nylon Flocked Dry Swabs, 502CS01). The fecal swab was pre-weighed and weighed after collection in the collection tube (Sterile Tube and Cap No Media, PFPM913S), and the sample weight was recorded. […]
For tissue necropsy, small intestine fluid and cecal fluid were collected separately from all the animals into two separate square plastic bottles, and stored at −20° C. The length and diameter of the cecum and the colon was measured from one animal in each group and recorded for reference. […] All samples were weighed, and the tissue sample weights were recorded. […]

[4] = parameters: species or system Yorkshire-Cross farm swine; settings: in vivo
Text: Tables 32 and 33 provide the tissue and plasma ratios of the animals in Groups 2-5.

[5] = female, Yorkshire-Cross, pig, in vivo, 0.04 mg/kg

C[C@@H]1CCN(C(=O)CC#N)C[C@@H]1N(C)c1ncnc2[nH]ccc12 [tofacitinib citrate]
GM-CSF levels in plasma or colon tissue ([1]; IC vs PO treatment groups): nor was there a significant difference | IL-6 expression in plasma ([1]; PO or IC, 1 h and 3 h post-treatment): inhibition | inhibition of IL-6 expression in colon tissue ([1]; all IC treated groups and high dose PO group (45 mg/kg), FIG. 112B): sustained through 24 h post-dose | IL-6 inhibition in colon tissue ([1]; low dose PO group (15 mg/kg), by 12 h post-dose): Recovery from IL-6 inhibition

C=CC[C@@H]1/C=C(\C)C[C@H](C)C[C@H](OC)[C@H]2O[C@@](O)(C(=O)C(=O)N3CCCC[C@H]3C(=O)O[C@H](/C(C)=C/[C@@H]3CC[C@@H](O)[C@H](OC)C3)[C@H](C)[C@@H](O)CC1=O)[C@H](C)C[C@@H]2OC [tacrolimus]
Cmax ([2]; PO, 0.09 mg/kg): 3.531 ± 3.84 ng/mL | concentration at 12 h ([2]; female, Yorkshire-Cross, pig, in vivo, 0.02 mg/kg): 0.746 ± 0.038 ng/mL | Tmax [2, 5]: 1 h | concentration at 12 h [2, 5]: 1.96 ± 0.491 ng/mL | concentration at 12 h ([2]; female, Yorkshire-Cross, pig, in vivo, 0.09 mg/kg): 4.35 ± 0.516 ng/mL | tissue (spiral and transverse colon) and luminal content (spiral, transverse, and distal colon) concentrations ([3]; IC capsule high and moderate dose vs PO): Significantly higher | mean concentration in cecum tissue and proximate colon tissue ([3]; intra-cecal vs oral, FIG. 76): higher | mean concentration in spiral colon lumen, transverse colon lumen and distal colon lumen [4]: statistically higher | mean concentration in spiral colon tissue and transverse colon tissue [4]: statistically higher
